Columns and labels:
[1] = tested on: EBV positive human lymphoma HG-3 cells; experiment: Alamar blue proliferation assay in HG-3 cells; type: cell-based; settings: 72 hours; for anti-proliferative effect on HG-3 cells (in words): Alamar blue, FIG. 1 and Table 1; for IC50: Homo sapiens, concentration range 0.01-10 μM, Alamar blue assay, read-out: Anti-proliferative IC50 values
Description: (§1) One million human EBV positive lymphoma cell lines HG3 and LCL070903 (Rosén et al., 2012) were cultured in RPMI1640 media supplemented with 10% FCS. […] Following treatment cells were harvested and washed with 1× PBS. Total RNA was extracted as described below.
(§2) Alamarblue® and PrestoBlue proliferation assays were performed to determine the growth kinetics of EBV inhibitor treated cells. Alamar blue® and PrestoBlue consists of a cell permeable substrate resazurin. In metabolically active and proliferating cells, resazurin is converted to resorufin due to an intrinsic reducing power of live cells and produces a red fluorescence. Therefore production of resorufin serves as an indicator of the viability of the cell population.
(§3) Proliferation assays were performed by seeding 5000 cells/well in a 96 well plate. […] Each concentration was tested in 4 replicates. To determine the growth kinetics, 10 μl of Alamar blue® or PrestoBlue (Invitrogen) was added to each well and incubated for 4 hours. Readout was taken using Tecan F500 (Tecan) multiplate reader or Varioskan LUX (ThermoFisher) multiplate reader.
In order to determine anti-cancer activity of compounds in oncoviral driven cells, an EBV infected human Chronic Lymphocytic Leukemia cell line HG-3 was used (Rosen et al., 2012). In brief, HG-3 cells were plated in a 96 well plate and treated with an increasing concentration of compounds.

[2] = tested on: LMP1; experiment: EBV target gene downregulation (qPCR) in HG-3 cells: LMP1; type: cell-based; settings: Homo sapiens, mRNA by qPCR, Table 2
Description: (§4) One million human EBV positive lymphoma cell lines HG3 and LCL070903 (Rosén et al., 2012) were cultured in RPMI1640 media supplemented with 10% FCS. For RNA expression analysis cells were treated with compounds at 10 μM concentration and for proliferation assay cells were treated at a concentration range of 0.01-100 μM. Following treatment cells were harvested and washed with 1× PBS. Total RNA was extracted as described below.
(§5) Total RNA was extracted from cells using TRIzol® extraction kit (Invitrogen). Briefly, 1×10^6 cells were washed with ice-cold 1× PBS and lysed in 1 ml of TRIzol® solution for 5 minutes at room temperature to dissociate nucleoprotein complexes. Lysed cells were then treated with 200 μl of chloroform and shaked vigorously for 15-30 seconds and incubated at room temperature for 2-3 minutes. The samples were centrifuged at 14000 rpm using Eppendorf table top centrifuge for 10 minutes at 4° C. Following centrifugation, upper aqueous phase was transferred to new eppendorf tubes. To precipitate total RNA 500 μl of […] was added to the separated aqueous phase and incubated at room temperature for 10 minutes. A RNA pellet was obtained by centrifuging the samples at 4° C. for 10 minutes. RNA pellet obtained was washed with 1 ml ice cold 75% ethanol and spun down at 14000 rpm at 4° C. RNA pellet was dried off of excess of ethanol and resuspended in 40 IA DPEC water.
(§6) Total RNA extracted from the cell was used to synthesize cDNA by reverse transcription reaction. Reverse transcription was performed according to one of the two following protocols.
(§7) In first protocol, SuperScript™ RT (Invitrogen) was used for reverse transcription reaction. RNA concentration was measured using NanoDrop®ND-1000 spectrophotometer (Witec AG) and 500 ng of total RNA was mixed with a 10 mM mix of dNTPs and 100 ng of random primers. The reaction mix was incubated at 65° C. for 5 minutes and quickly incubated on ice for 1 minute. Following incubation on ice, 5× first strand buffer and 0.1M DTT were added and mix was incubated for 2 minutes at 25° C. To start the reverse transcription reaction, 200U of SuperScrip™ II RT was added to the reaction mix and incubated at 42° C. for 50 minutes. The reaction was stopped by incubating the reaction mix at 75° C. for 15 minutes.
(§8) In second protocol, reverse transcription was performed using PrimeScript RT Master Mix (Takara). RNA concentration was measured using NanoDrop®ND-1000 spectrophotometer (Witec AG) and 1 μg of total RNA was mixed with 4 μL 5X PrimeScript RT Master Mix in a total reaction volume of 20 μL. […]
(§9) To determine the ability of compounds to downregulate EBV driven gene expression, HG-3 cells were treated with selected compounds and percentage inhibition of EBV target genes was determined by quantitative PCR. […]

[3] = tested on: RUNX3; experiment: EBV target gene downregulation (qPCR) in HG-3 cells: RUNX3; type: cell-based; settings: Homo sapiens, mRNA by qPCR, Table 2
Description: as §4, §5, §6, §7, §8, §9

[4] = tested on: NOTCH target gene HES1; experiment: NOTCH target gene HES1 downregulation in RPMI 8402 cells; type: cell-based, human; design: Percentage inhibition of NOTCH target gene HES1: concentration or dose not given beside the values; settings: RPMI 8402 cells (NOTCH1 positive, EBV negative)
Description: as §5, §6
(§10) QRT-PCR was carried out using 7900 HT Fast Real-Time PCR system (Applied Biosystems) or QuantStudio 3 system (ThermoFisher). Briefly, 12.5 ng of template cDNA was used with a primer concentration of 0.5 μM each and lx SYBR Green dye in a final volume of 10 μL in a 96 well or 384 well plate format.
(§11) To determine the ability of compounds to downregulate EBV driven gene expression, HG-3 cells were treated with selected compounds and percentage inhibition of EBV target genes was determined by quantitative PCR. […] To further determine the anti-oncoviral specificity of compounds, these compounds were tested for their ability to downregulate a NOTCH target gene HES1 in a NOTCH1 positive (EBV negative) human leukemic cell line RPMI8402.

[5] = tested on: EBNA2; experiment: EBV target gene downregulation (qPCR) in HG-3 cells: EBNA2; type: cell-based; settings: Homo sapiens, mRNA by qPCR
Description: as §4, §5, §6, §7
(§12) In second protocol, reverse transcription was performed using PrimeScript RT Master Mix (Takara). RNA concentration was measured using NanoDrop®ND-1000 spectrophotometer (Witec AG) and 1 μg of total RNA was mixed with 4 μL 5X PrimeScript RT Master Mix in a total reaction volume of 20 μL. The reaction mix was incubated at 37° C. for 15 minutes followed by heat inactivation at 85° C. for 5 seconds.
as §10, §11
(§13) Upon infection of human cells, EBV is known to induce cancerous transformation of cells via upregulation of host as well as viral genes (e.g LMP1, EBNA2, BATF1, BMI1 and CD21). To determine the ability of compounds to downregulate EBV driven gene expression, HG-3 and LCL070903 cells were treated with selected compounds and percentage inhibition of EBV target genes was determined by quantitative PCR. As shown in Table 5 and Table 6, compounds down regulate EBV target genes such as BMI1 in HG-3 and LCL070903 cells, respectively (FIGS. 3 and 4).

[6] = tested on: CD21; experiment: EBV target gene downregulation (qPCR) in HG-3 cells: CD21; type: cell-based; settings: Homo sapiens, mRNA by qPCR, Table 5
Description: as §4
Total RNA was extracted from cells using TRIzol® extraction kit (Invitrogen). Briefly, 1×10^6 cells were washed with ice-cold 1× PBS and lysed in 1 ml of TRIzol® solution for 5 minutes at room temperature to dissociate nucleoprotein complexes. Lysed cells were then treated with 200 μl of chloroform and shaked vigorously for 15-30 seconds and incubated at room temperature for 2-3 minutes. […]
(§14) In first protocol, SuperScript™ RT (Invitrogen) was used for reverse transcription reaction. RNA concentration was measured using NanoDrop®ND-1000 spectrophotometer (Witec AG) and 500 ng of total RNA was mixed with a 10 mM mix of dNTPs and 100 ng of random primers. […]
as §8

[7] = tested on: BMI1 (EBV target gene); experiment: EBV target gene downregulation (qPCR) in HG-3 cells: BMI1; type: cell-based, human; settings: 48 hours; for potency in downregulating EBV pathway (BMI1) compared with 6-(4-tert-butylphenoxy)pyridin-3-amine (in words): 10 μM, qRT-PCR, FIG. 4; for inhibition at 10 µM: Homo sapiens, mRNA by qPCR, Table 5
Description: EBV positive human B HG-3 cells were treated with 10 μM of the mentioned compounds for 48 hours. Following treatment, total RNA was extracted and mRNA expression analysed by qRT-PCR.
as §4, §5, §6, §7, §12, §10, §13

[8] = tested on: BMI1 (EBV target gene); experiment: EBV target gene downregulation (qPCR) in LCL070903 cells: BMI1; type: cell-based, human; settings: 48 hours; for potency in downregulating EBV pathway (BMI1) compared with 6-(4-tert-butylphenoxy)pyridin-3-amine (in words): 10 μM, qRT-PCR, FIG. 3; for inhibition at 10 µM: Homo sapiens, mRNA by qPCR, Table 6
Description: EBV positive human B LCL070903 cells were treated with 10 μM of the mentioned compounds for 48 hours. Following treatment, total RNA was extracted and mRNA expression analysed by qRT-PCR.
as §4, §5, §6, §7, §12, §10, §13

[9] = tested on: EBV positive human B HG-3 cells; experiment: PrestoBlue proliferation assay in HG-3 cells; type: cell-based; settings: 72 hours; for anti-proliferative effect on HG-3 cells (in words): PrestoBlue, FIG. 2 and Table 4; for IC50: Homo sapiens, concentration range 0.03-100 μM, PrestoBlue assay, read-out: Anti-proliferative IC50 values (μM) in HG-3 cells
Description: as §1, §2, §3
In brief, HG-3 cells were plated in a 96 well plate and treated with an increasing concentration of compounds.

[10] = tested on: EBNA2; experiment: EBV target gene downregulation (qPCR) in LCL070903 cells: EBNA2; type: cell-based; settings: Homo sapiens, mRNA by qPCR, Table 6
Description: as §4, §5, §6, §7, §12, §10, §13

[11] = tested on: CD21; experiment: EBV target gene downregulation (qPCR) in LCL070903 cells: CD21; type: cell-based; settings: Homo sapiens, mRNA by qPCR, Table 6
Description: as §4
as §5, with “A RNA pellet was obtained by centrifuging the samples at 4° C. for 10 minutes. RNA pellet obtained was washed with 1 ml ice cold 75% ethanol and spun down at 14000 rpm at 4° C. RNA pellet was dried off of excess of ethanol and resuspended in 40 IA DPEC water.” left out
as §14, §8
as §13, with “As shown in Table 5 and Table 6, compounds down regulate EBV target genes such as BMI1 in HG-3 and LCL070903 cells, respectively (FIGS. 3 and 4).” left out

Structure (SMILES)	anti-proliferative effect on HG-3 cells (in words) [1]	IC50 [1] [µM]	inhibition at 10 µM [2] [%]	inhibition at 10 µM [3] [%]	Percentage inhibition of NOTCH target gene HES1 [4] [%]	downregulation of NOTCH target gene HES1 (in words) [4]	inhibition at 10 µM ([5]; Table 2) [%]	inhibition at 10 µM [6] [%]	potency in downregulating EBV pathway (BMI1) compared with 6-(4-tert-butylphenoxy)pyridin-3-amine (in words) [7]	inhibition at 10 µM [7] [%]	potency in downregulating EBV pathway (BMI1) compared with 6-(4-tert-butylphenoxy)pyridin-3-amine (in words) [8]	inhibition at 10 µM [8] [%]	anti-proliferative effect on HG-3 cells (in words) [9]	IC50 [9] [µM]	inhibition at 10 µM ([5]; Table 5) [%]	inhibition at 10 µM [10] [%]	inhibition at 10 µM [11] [%]
CC(C)(C)c1ccc(Oc2ccc(NCc3c[nH]cn3)cn2)cc1 [Example 10, N-((1H-Imidazol-4-yl)methyl)-6-(4-(tert-butyl)phenoxy)pyridin-3-amine]	demonstrate anti-proliferative effect	6.6	15	37	0	do not modulate expression of this gene											
CC(C)(C)c1ccc(Oc2ccc(NCc3ccccn3)cn2)cc1 [Example 3, 6-(4-(tert-Butyl)phenoxy)-N-(pyridin-2-ylmethyl)pyridin-3-amine]	demonstrate anti-proliferative effect	5.4	37	55	0	do not modulate expression of this gene	16										
OC(c1ccc(NCc2cccnc2)cc1)c1ccc(-c2ccc(F)cc2)cc1 (stereo not shown) [Example 30, (4′-Fluoro-[1,1′-biphenyl]-4-yl)(4-((pyridin-3-ylmethyl)amino)phenyl)methanol]								10	enhanced potency	31	enhanced potency	54					
Cc1nc(Oc2ccc(-c3ccccc3)cc2)ccc1NCc1cccnc1 [Example 23, 6-([1,1′-Biphenyl]-4-yloxy)-2-methyl-N-(pyridin-3-ylmethyl)pyridin-3-amine]									enhanced potency	35	enhanced potency	39	demonstrate anti-proliferative effect	1.9	1	1	
CC(C)(C)c1ccc(Oc2ccc(NCc3cnc(N)nc3)cn2)cc1 [Example 5, 5-(((6-(4-(tert-Butyl)phenoxy)pyridin-3-yl)amino)methyl)pyrimidin-2-amine]	demonstrate anti-proliferative effect	4.8	22	57	0	do not modulate expression of this gene	46										
Fc1cc(NCc2cccnc2)ccc1Oc1ccc(C2CCCCC2)cc1 [Example 19, 4-(4-Cyclohexylphenoxy)-3-fluoro-N-(pyridin-3-ylmethyl)aniline]									enhanced potency	19	enhanced potency	56	demonstrate anti-proliferative effect	3.5	36	19	
c1cncc(CNc2ccc(Oc3ccc(-c4cncs4)cc3)nc2)c1 [Example 27, N-(pyridin-3-ylmethyl)-6-(4-(thiazol-5-yl)phenoxy)pyridin-3-amine]									enhanced potency		enhanced potency	66	demonstrate anti-proliferative effect	1.9			22
Cc1ccccc1-c1ccc(Oc2ccc(NCc3cccnc3)cn2)cc1C [Example 29, 6-((2,2′-dimethyl-[1,1′-biphenyl]-4-yl)oxy)-N-(pyridin-3-ylmethyl)pyridin-3-amine]									enhanced potency	28	enhanced potency	72	demonstrate anti-proliferative effect	2	6	30	
CC(C)(C)c1ccc(Oc2ccc(NCc3ccncc3)cn2)cc1 [Example 1, 6-(4-(tert-Butyl)phenoxy)-N-(pyridin-4-ylmethyl)pyridin-3-amine]	demonstrate anti-proliferative effect	4	30	27	0	do not modulate expression of this gene											
